The source made the active and inactive calls.
Legend:
Assay type in all cases: functional
Wee1-like protein kinase = Wee1-like protein kinase (Homo sapiens, UniProt P30291); experiment: Dose Response Cell-based Assay for Inhibitors of Wee1 Degradation. [Related pubchem assays: 1410, 1321 ]
[1] = target: G2/mitotic-specific cyclin-B1 (Homo sapiens, UniProt P14635); experiment: Counterscreen assay for inhibitors of Wee1 degradation: dose response cell-based assay to identify inhibitors of cyclin B degradation. [Related pubchem assays: 1410, 1321 ]
H4 = experiment: Luminescence Cell-Based Dose Response HTS to Identify Activators of 5'UTR Stem-Loop Driven Prion Protein mRNA Translation in H4 Neuroglioblastoma Cells. [Related pubchem assays: 1829 (Project Summary), 1814 (Primary HTS)]; conditions: Homo sapiens
[2] = Luminescence Cell-Based Dose Response HTS to Identify Activators of Luciferase Translation or Activity in H4 […] Cells. [Related pubchem assays: 1829 (Project Summary), 1814 (Primary HTS)]
Insulin-degrading enzyme = target: T1, Insulin-degrading enzyme (Homo sapiens, UniProt P14735); experiment: Dose Response: Fluorescence polarization-based cell-based high throughput dose response assay for inhibitors of insulin-degrading enzyme (IDE). [Related pubchem assays: 434962 (Primary screen (IDE inhibitors in singlicate)), 449730 (Counterscreen (Cytotoxicity in triplicate)), 435028 (Confirmation (IDE inhibitors in triplicate)), 434984 (Summary …
T1 sequence (P14735 whole entry): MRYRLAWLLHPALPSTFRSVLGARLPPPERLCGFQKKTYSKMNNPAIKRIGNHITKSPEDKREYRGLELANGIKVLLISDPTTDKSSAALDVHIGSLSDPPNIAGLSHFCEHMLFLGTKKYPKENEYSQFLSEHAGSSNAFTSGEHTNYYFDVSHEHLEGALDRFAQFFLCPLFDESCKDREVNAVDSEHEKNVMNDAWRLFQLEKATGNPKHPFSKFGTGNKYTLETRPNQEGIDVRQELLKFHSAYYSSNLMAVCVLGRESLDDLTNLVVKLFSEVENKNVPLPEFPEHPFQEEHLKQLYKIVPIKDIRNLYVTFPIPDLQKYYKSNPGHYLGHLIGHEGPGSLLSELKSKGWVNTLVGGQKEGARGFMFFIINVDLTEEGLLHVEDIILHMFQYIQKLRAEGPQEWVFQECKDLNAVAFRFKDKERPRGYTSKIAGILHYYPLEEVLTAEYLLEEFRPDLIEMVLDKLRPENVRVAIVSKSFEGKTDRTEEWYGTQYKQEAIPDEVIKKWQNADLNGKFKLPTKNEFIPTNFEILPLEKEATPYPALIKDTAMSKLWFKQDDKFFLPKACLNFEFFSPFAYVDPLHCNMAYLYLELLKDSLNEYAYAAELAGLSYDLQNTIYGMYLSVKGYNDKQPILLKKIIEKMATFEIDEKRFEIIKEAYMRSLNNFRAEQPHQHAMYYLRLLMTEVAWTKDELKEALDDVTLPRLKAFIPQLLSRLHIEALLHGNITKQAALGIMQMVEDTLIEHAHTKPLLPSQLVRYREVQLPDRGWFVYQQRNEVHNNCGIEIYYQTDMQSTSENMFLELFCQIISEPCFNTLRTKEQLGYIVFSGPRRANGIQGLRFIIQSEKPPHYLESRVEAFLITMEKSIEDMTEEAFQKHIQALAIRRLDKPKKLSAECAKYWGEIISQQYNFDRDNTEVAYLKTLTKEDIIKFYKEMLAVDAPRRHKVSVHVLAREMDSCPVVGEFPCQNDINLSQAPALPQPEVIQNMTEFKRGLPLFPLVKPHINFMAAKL

[3] = target: T2, Short transient receptor potential channel 4 (Mus musculus, UniProt Q9QUQ5); experiment: calcium entry via TRPC4 opening agents – cell-based, HEK293 TRPC4/mu-opioid, Fluo-4 calcium, dose response (AID 434937)
T2 sequence (Q9QUQ5 whole entry): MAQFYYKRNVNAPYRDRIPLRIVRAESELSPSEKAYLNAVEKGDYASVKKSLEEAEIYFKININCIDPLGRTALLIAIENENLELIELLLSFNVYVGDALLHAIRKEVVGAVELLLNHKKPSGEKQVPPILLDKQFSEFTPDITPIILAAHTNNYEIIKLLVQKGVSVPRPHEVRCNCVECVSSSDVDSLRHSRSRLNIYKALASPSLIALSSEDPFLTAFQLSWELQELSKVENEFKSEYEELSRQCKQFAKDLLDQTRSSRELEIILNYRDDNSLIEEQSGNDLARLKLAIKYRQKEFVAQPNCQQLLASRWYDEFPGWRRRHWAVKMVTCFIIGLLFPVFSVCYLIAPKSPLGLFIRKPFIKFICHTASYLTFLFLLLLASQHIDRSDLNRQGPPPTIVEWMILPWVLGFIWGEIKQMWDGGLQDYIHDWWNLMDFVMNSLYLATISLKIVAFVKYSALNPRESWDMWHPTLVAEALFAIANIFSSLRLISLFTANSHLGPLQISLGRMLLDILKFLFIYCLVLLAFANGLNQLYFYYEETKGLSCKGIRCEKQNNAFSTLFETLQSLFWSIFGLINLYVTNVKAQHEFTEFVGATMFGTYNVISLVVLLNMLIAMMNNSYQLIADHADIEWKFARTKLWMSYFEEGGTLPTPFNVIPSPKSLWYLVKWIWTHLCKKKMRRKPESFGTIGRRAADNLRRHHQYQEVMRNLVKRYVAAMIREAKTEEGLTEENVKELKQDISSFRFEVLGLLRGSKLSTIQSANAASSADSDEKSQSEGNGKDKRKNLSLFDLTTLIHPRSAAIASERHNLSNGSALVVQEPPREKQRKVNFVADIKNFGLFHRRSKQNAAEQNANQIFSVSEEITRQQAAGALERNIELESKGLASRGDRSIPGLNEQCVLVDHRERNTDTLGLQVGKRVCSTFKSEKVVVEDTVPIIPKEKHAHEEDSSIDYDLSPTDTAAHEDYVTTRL

[4] = target: G-protein coupled receptor 55 (Homo sapiens, UniProt Q9Y2T6); experiment: selective activators of receptor GPR55 – imaging, U2OS cells, beta-arrestin-GFP redistribution, primary screen (AID 1961)
[5] = Counterscreen for IDE inhibitors: Luminescence-based cell-based high throughput dose response assay to identify compounds that are cytotoxic to HEK cells. [Related pubchem assays: 434962 (Primary screen (IDE inhibitors in singlicate)), 449730 (Counterscreen (Cytotoxicity in triplicate)), 435028 (Confirmation (IDE inhibitors in triplicate)) …; conditions: HEK293

Wee1-like protein kinase, sequence (P30291 whole entry): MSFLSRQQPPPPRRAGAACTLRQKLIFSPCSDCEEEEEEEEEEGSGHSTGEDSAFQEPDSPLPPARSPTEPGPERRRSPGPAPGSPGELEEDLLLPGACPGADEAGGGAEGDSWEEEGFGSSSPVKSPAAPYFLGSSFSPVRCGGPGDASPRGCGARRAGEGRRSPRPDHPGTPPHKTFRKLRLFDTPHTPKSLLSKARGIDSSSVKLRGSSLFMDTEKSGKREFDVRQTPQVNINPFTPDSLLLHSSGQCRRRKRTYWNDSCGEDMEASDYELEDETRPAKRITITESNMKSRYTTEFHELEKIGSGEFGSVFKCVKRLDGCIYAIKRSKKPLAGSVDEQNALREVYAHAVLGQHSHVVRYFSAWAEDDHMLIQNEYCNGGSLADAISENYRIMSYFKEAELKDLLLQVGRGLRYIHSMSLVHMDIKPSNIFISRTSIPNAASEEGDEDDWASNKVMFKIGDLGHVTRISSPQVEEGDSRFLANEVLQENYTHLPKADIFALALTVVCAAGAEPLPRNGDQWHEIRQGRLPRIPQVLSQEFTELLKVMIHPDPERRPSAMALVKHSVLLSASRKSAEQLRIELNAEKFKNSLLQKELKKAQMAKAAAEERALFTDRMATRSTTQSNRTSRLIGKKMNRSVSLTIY
G2/mitotic-specific cyclin-B1, sequence (P14635 whole entry): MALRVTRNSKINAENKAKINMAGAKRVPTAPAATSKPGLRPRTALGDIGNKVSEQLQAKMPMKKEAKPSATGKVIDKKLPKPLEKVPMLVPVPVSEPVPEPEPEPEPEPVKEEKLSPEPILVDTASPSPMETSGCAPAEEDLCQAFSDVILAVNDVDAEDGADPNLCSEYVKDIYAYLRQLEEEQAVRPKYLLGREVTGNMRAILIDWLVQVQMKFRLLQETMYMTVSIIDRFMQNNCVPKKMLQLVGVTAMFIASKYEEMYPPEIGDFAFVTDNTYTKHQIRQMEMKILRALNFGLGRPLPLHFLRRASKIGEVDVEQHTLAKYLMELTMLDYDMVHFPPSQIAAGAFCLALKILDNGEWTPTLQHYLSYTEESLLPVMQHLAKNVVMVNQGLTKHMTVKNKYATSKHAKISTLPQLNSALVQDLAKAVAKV
G-protein coupled receptor 55, sequence (Q9Y2T6 whole entry): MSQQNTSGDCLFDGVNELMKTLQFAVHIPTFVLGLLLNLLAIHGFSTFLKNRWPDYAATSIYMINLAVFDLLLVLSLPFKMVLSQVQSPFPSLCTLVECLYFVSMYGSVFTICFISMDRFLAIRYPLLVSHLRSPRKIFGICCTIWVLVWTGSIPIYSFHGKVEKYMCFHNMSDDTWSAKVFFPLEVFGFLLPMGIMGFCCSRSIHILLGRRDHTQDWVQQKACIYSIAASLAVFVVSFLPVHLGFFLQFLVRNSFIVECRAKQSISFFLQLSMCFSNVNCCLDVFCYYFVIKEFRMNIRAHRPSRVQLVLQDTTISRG

Row | Structure (SMILES) | EC50 (Wee1-like protein kinase) | EC50 [1] | EC50 (H4) | EC50 [2] | IC50 (Insulin-degrading enzyme) | EC50 [3] | EC50 [4] | IC50 [5]
1 | Cc1cccn2c1nc(=S)n2C(=O)c1ccco1 | > 49.7 µM (not active) | > 49.7 µM (not active) | 104 nM (active) | 1.05 µM (active) |  |  |  | 
2 | CN(C)c1ccc(/C=C/C(=O)c2c(O)oc3ccccc3c2=O)cc1 |  |  |  |  | > 2.07 µM (active) | 7.5 µM (active) | 19.5 µM (inactive) | > 55.7 µM (not active)

— ChEMBL document CHEMBL1201862, “PubChem BioAssay data set” (2004)
